Measured values: PubChem BioAssay AID1259408 (Genetic Toxicology Data Bank (GENE-TOX), 2018)
Activity calls are given as the source filed them. The rule behind the calls is not given here.

Test system: GENE-TOX genotoxicity assays, various organisms and cells
Test: GENE-TOX mutagenicity studies
Settings: for call: Assay Type: In vivo carcinogenicity studies
[1] = Species/Cell Type: Bacillus subtilis (H17 vs M45), Assay Type: Rec-assay, spot test, DNA effects (bacterial DNA repair), Assay Code: REW+, Evaluation Type: Evaluation A (Pre-1980)
[2] = Species/Cell Type: Mammalian polychromatic erythrocytes, Assay Type: Micronucleus test, chromosome aberrations, Assay Code: MNTT, Evaluation Type: Evaluation B (Post-1980)
[3] = Species/Cell Type: Mouse, Sex: Male, Assay Type: Sperm morphology, Assay Code: SPIT, Evaluation Type: Evaluation A (Pre-1980)
[4] = Species/Cell Type: Rat, Sex: Male, Assay Type: Sperm morphology, Assay Code: SPA+, Evaluation Type: Evaluation A (Pre-1980)
[5] = Species/Cell Type: Salmonella typhimurium (one or more of the five standard strains: TA98, TA100, TA1535, TA1537, and TA1538), Assay Type: Histidine reverse gene mutation, Ames assay, Assay Code: SALT, Evaluation Type: Evaluation A (Pre-1980)

## COP(=O)(OC)OC=C(Cl)Cl
Species/Cell Type: Allium cepa, Assay Type: Chromosome aberrations, Assay Code: ALC+D, Dose Response: With dose response, Evaluation Type: Evaluation A (Pre-1980)
  mutagenic call: active; positive
[1]
  mutagenic call: active; positive
Species/Cell Type: Drosophila melanogaster, Assay Type: Sex-linked recessive lethal gene mutation, Assay Code: SRL-, Evaluation Type: Evaluation A (Pre-1980)
  mutagenic call: inactive; negative
Species/Cell Type: Escherichia coli WP2, Assay Type: Tryptophan reverse gene mutation, Assay Code: WP2+, Evaluation Type: Evaluation A (Pre-1980)
  mutagenic call: active; positive
Species/Cell Type: Escherichia coli WP2 UVRA, Assay Type: Tryptophan reverse gene mutation, Assay Code: WPU+, Evaluation Type: Evaluation A (Pre-1980)
  mutagenic call: active; positive
Species/Cell Type: Escherichia coli polA (W3119 vs P3478), Assay Type: Rec-assay, DNA effects (bacterial DNA repair), Assay Code: RE1+, Evaluation Type: Evaluation A (Pre-1980)
  mutagenic call: active; positive
Species/Cell Type: Human lymphocytes, Assay Type: Sister-chromatid exchange (SCE) in vitro, Assay Code: SCL-, Evaluation Type: Evaluation A (Pre-1980)
  mutagenic call: inactive; negative
Species/Cell Type: Human lymphocytes, Assay Type: Sister-chromatid exchange (SCE) in vitro, Assay Code: SCLT, Evaluation Type: Evaluation B (Post-1980)
  mutagenic call: no conclusion
Species/Cell Type: Human, Assay Type: Sister-chromatid exchange (SCE) in vitro, Assay Code: SC1-, Evaluation Type: Evaluation A (Pre-1980)
  mutagenic call: inactive; negative
Species/Cell Type: Human, Assay Type: Sister-chromatid exchange (SCE) in vitro, Assay Code: SC1T, Evaluation Type: Evaluation B (Post-1980)
  mutagenic call: no conclusion
Species/Cell Type: Mammalian germ cells, Sex: Male, Assay Type: Chromosome aberrations in vivo, Assay Code: CY9-, Evaluation Type: Evaluation A (Pre-1980)
  mutagenic call: inactive; negative
[2]
  mutagenic call: no conclusion
[3]
  mutagenic call: no conclusion
Species/Cell Type: Nonhuman bone marrow, Assay Type: Chromosome aberrations, in vivo, Assay Code: CY#-, Evaluation Type: Evaluation A (Pre-1980)
  mutagenic call: inactive; negative
Species/Cell Type: Nonhuman, Assay Code: CCGT, Evaluation Type: Evaluation A (Pre-1980)
  call: no conclusion
Species/Cell Type: Nonhuman, Assay Type: Sister-chromatid exchange (SCE) in vitro, Assay Code: SC2+D, Dose Response: With dose response, Evaluation Type: Evaluation B (Post-1980)
  mutagenic call: active; positive
Species/Cell Type: Nonhuman, Assay Type: Sister-chromatid exchange (SCE) in vivo, Assay Code: SC3-, Evaluation Type: Evaluation B (Post-1980)
  mutagenic call: inactive; negative
Species/Cell Type: Rodents, Sex: Male, Assay Type: Dominant lethal test, Assay Code: DLTT, Evaluation Type: Evaluation A (Pre-1980)
  mutagenic call: no conclusion
Species/Cell Type: Saccharomyces cerevisiae, Assay Type: Mitotic recombination or gene conversion, Assay Code: YEC+, Evaluation Type: Evaluation A (Pre-1980)
  mutagenic call: active; positive
Species/Cell Type: Salmonella typhimurium (one or more of the five standard strains: TA98, TA100, TA1535, TA1537, and TA1538), Assay Type: Histidine reverse gene mutation, Ames assay, Assay Code: SAL+, Evaluation Type: Evaluation A (Pre-1980)
  mutagenic call: active; positive
Species/Cell Type: Salmonella typhimurium, Serratia marcesens, Saccharomyces cerevisiae, Assay Type: Forward and reverse gene mutation, mitotic recombination and gene conversion, DNA effects, host-mediated assay, Assay Code: HM5-, Evaluation Type: Evaluation A (Pre-1980)
  mutagenic call: inactive; negative

## COc1cc2c(c3ccc4ccccc4c13)CC=C2C
Species/Cell Type: Salmonella typhimurium (one or more of the five standard strains: TA98, TA100, TA1535, TA1537, and TA1538), Assay Type: Histidine reverse gene mutation, Ames assay, Assay Code: SAL+*, Activation: With metabolic activation, Evaluation Type: Evaluation A (Pre-1980)
  mutagenic call: active; positive

## O=C1c2ccccc2-c2ccccc21
Species/Cell Type: Escherichia coli polA (W3119 vs P3478), Assay Type: Rec-assay, DNA effects (bacterial DNA repair), Assay Code: RE1T, Evaluation Type: Evaluation A (Pre-1980)
  mutagenic call: no conclusion

## [Cl][Cd][Cl]
[1]
  mutagenic call: active; positive
Species/Cell Type: Drosophila melanogaster, Assay Type: Aneuploidy, whole sex chromosome loss, chromosome aberrations, Assay Code: DAC+, Evaluation Type: Evaluation A (Pre-1980)
  mutagenic call: active; positive
Species/Cell Type: Human lymphocytes or leukocytes, Assay Type: Chromosome aberrations in vitro, Assay Code: CY7-, Evaluation Type: Evaluation A (Pre-1980)
  mutagenic call: inactive; negative
Species/Cell Type: Mammalian polychromatic erythrocytes, Assay Type: Micronucleus test, chromosome aberrations, Assay Code: MNT-, Evaluation Type: Evaluation B (Post-1980)
  mutagenic call: inactive; negative
Species/Cell Type: Mammalian polychromatic erythrocytes, Assay Type: Micronucleus test, chromosome aberrations, Assay Code: MNTT, Evaluation Type: Evaluation A (Pre-1980)
  mutagenic call: no conclusion
[3]
  mutagenic call: no conclusion
Species/Cell Type: Nonhuman, Assay Code: CCG+, Evaluation Type: Evaluation A (Pre-1980)
  call: active; positive
Species/Cell Type: Nonhuman, Assay Type: Sister-chromatid exchange (SCE) in vitro, Assay Code: SC2-, Evaluation Type: Evaluation B (Post-1980)
  mutagenic call: inactive; negative
Species/Cell Type: Rabbit, Sex: Male, Assay Type: Sperm morphology, Assay Code: SPR+, Evaluation Type: Evaluation A (Pre-1980)
  mutagenic call: active; positive
[4]
  mutagenic call: active; positive
Species/Cell Type: Rodents, Sex: Male, Assay Type: Dominant lethal test, Assay Code: DLT-, Evaluation Type: Evaluation A (Pre-1980)
  mutagenic call: inactive; negative
Species/Cell Type: Saccharomyces cerevisiae, Assay Type: Mitotic recombination or gene conversion, Assay Code: YEH+, Evaluation Type: Evaluation A (Pre-1980)
  mutagenic call: active; positive
[5]
  mutagenic call: no conclusion
Species/Cell Type: Salmonella typhimurium, Assay Type: Forward and reverse gene mutation, host-mediated assay, Assay Code: HMA-, Evaluation Type: Evaluation A (Pre-1980)
  mutagenic call: inactive; negative
Species/Cell Type: Syrian hamster embryo (SA7/SHE) cells, Assay Type: Cell transformation, viral enhanced, Assay Code: CT7+, Evaluation Type: Evaluation A (Pre-1980)
  mutagenic call: active; positive

## COC1=C(OC)C(=O)C(C/C=C(\C)CC/C=C(\C)CC/C=C(\C)CC/C=C(\C)CC/C=C(\C)CC/C=C(\C)CCC=C(C)C)=C(C)C1=O
Species/Cell Type: Human, Sex: Male, Assay Type: Sperm morphology, Assay Code: SPHT, Evaluation Type: Evaluation A (Pre-1980)
  mutagenic call: no conclusion

## NC[C@@H]1OC(O[C@H]2[C@@H](O)[C@H](O[C@@H]3[C@@H](O)[C@H](N)C[C@H](N)[C@H]3O[C@H]3O[C@H](CN)[C@@H](O)[C@H](O)[C@H]3N)O[C@@H]2CO)[C@H](N)[C@@H](O)[C@@H]1O (stereo partly drawn)
[4]
  mutagenic call: active; positive

## Cc1ccc(C(C)C)c(O)c1
Species/Cell Type: Allium cepa, Assay Type: Chromosome aberrations, Assay Code: ALC-, Evaluation Type: Evaluation A (Pre-1980)
  mutagenic call: inactive; negative
Species/Cell Type: Drosophila melanogaster, Assay Type: Sex-linked recessive lethal gene mutation, Assay Code: SRLT, Evaluation Type: Evaluation A (Pre-1980)
  mutagenic call: no conclusion

## COc1cc2c[n+](C)c3c4cc(OC)c(OC)cc4ccc3c2cc1OC
[5]
  mutagenic call: no conclusion

## CCN(CC)Cc1cc(Br)ccc1OCC(=O)NN
Species/Cell Type: Saccharomyces cerevisiae, Assay Type: Reverse gene mutation, Assay Code: YERT, Evaluation Type: Evaluation A (Pre-1980)
  mutagenic call: no conclusion

## CN1CCN(CC(=O)NN)CC1
Species/Cell Type: Escherichia coli WP2, Assay Type: Tryptophan reverse gene mutation, Assay Code: WP2-, Evaluation Type: Evaluation A (Pre-1980)
  mutagenic call: inactive; negative
Species/Cell Type: Saccharomyces cerevisiae, Assay Type: Mitotic recombination or gene conversion, Assay Code: YEC-*, Activation: With metabolic activation, Evaluation Type: Evaluation A (Pre-1980)
  mutagenic call: inactive; negative

## Oc1cc2cccc3ccc4cc5ccccc5c1c4c32
Species/Cell Type: Chinese hamster lung (V79) cells, Assay Type: Forward gene mutation at the HPRT or ouabain locus, Assay Code: V79-, Evaluation Type: Evaluation A (Pre-1980)
  mutagenic call: inactive; negative
Species/Cell Type: Nonhuman, Assay Code: CCG+L, Evaluation Type: Evaluation A (Pre-1980)
  call: active; positive
[5]
  mutagenic call: no conclusion

## CCC[N+](=O)[O-]
[2]
  mutagenic call: no conclusion

## O=[N+]([O-])[O-].O=[N+]([O-])[O-].[Cd+2]
[1]
  mutagenic call: active; positive

## CC(=O)c1ccccc1
Species/Cell Type: Escherichia coli polA (W3110 vs P3478), Assay Type: Rec-assay, DNA effects (bacterial DNA repair), Assay Code: RE2-, Evaluation Type: Evaluation A (Pre-1980)
  mutagenic call: inactive; negative
Species/Cell Type: Escherichia coli polA (W3119 vs P3478), Assay Type: Rec-assay, DNA effects (bacterial DNA repair), Assay Code: RE1-, Evaluation Type: Evaluation A (Pre-1980)
  mutagenic call: inactive; negative
